In patent publication US7704995B2 (Exelixis, Inc., priority 2003, dated 2010):
pIC50: −log10 of the molar value. Where two headings read alike, the source gives them in different places.

Target: T1, Chk1 (Homo sapiens, UniProt O14757)
T1 construct: purchased Upstate Biotechnology
T1 sequence (O14757 1-476): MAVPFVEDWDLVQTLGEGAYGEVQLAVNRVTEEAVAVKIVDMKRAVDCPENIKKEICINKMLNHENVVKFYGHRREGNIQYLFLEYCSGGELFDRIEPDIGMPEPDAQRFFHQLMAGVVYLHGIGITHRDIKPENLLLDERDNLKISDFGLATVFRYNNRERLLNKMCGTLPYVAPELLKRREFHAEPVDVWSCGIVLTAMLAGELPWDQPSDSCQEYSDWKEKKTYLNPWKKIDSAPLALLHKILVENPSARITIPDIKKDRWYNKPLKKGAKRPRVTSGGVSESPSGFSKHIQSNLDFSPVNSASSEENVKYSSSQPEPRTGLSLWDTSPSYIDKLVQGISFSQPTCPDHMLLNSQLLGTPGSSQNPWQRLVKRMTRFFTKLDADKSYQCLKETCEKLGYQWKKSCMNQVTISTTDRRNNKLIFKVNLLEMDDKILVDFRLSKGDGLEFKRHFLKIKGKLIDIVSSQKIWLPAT
Assay: Chk1 kinase assay: incorporation of γ-33P ATP into immobilized myelin basic protein
Type: biochemical
Conditions: read-out: Chk1 IC50
How it was run: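 Read-out is scintillation counting of 33P incorporated into plate-bound myelin basic protein. Chk1 runs at 10 nM enzyme with 10 μM ATP, Chk2 at 20 nM with 30 μM ATP, each for 1 hour at room temperature. Duplicate points; IC50 taken as 50% activity reduction, Ki computed from IC50.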

[1] = Table 11, Chk1 only, class symbols A-D

SMILES | pIC50 | pIC50 (Table 11, Chk1 only) | also measured
CNC(=O)c1nc(-c2cccc(C(=O)NCc3cc(C(F)(F)F)cc(C(F)(F)F)c3)c2)cnc1N [Example 262, 3-amino-6-{3-[({[3,5-bis(trifluoromethyl)phenyl]methyl}amino)carbonyl]phenyl}-N-methylpyrazine-2-carboxamide] | 6.00 to 7.30 |  | 
CNC(=O)c1nc(-c2cccc(C(=O)NCCc3cccs3)c2)cnc1N [Example 132, 3-amino-N-methyl-6-[3-({[2-(2-thienyl)ethyl]amino}carbonyl)phenyl]pyrazine-2-carboxamide] | 6.00 to 7.30 |  | 
Nc1ncc(-c2cccc(C(=O)NCc3c(F)ccc(Cl)c3F)c2)nc1C(=O)N[C@H]1CCCNC1 [Example 1000, 3-amino-6-[3-({[(3-chloro-2,6-difluorophenyl)methyl]amino}carbonyl)phenyl]-N-[(3S)-piperidin-3-yl]pyrazine-2-carboxamide] |  |  | pIC50 [1]: > 7.30
COC(=O)C1CCCN(C(=O)c2nc(-c3cccc(C(=O)NCc4ccccc4)c3)cnc2N)C1 (centres unmarked) [Example 591, methyl 1-{[3-amino-6-(3-{[(phenylmethyl)amino]carbonyl}phenyl)pyrazin-2-yl]carbonyl}piperidine-3-carboxylate] |  | ≤ 5.00 | 
Nc1ncc(-c2cccc(CNC(=O)c3cc(Cl)sc3Cl)c2)nc1C(=O)N[C@H]1CCCNC1 [Example 992, 3-amino-6-[3-({[(2,5-dichloro-3-thienyl)carbonyl]amino}methyl)phenyl]-N-[(3S)-piperidin-3-yl]pyrazine-2-carboxamide] |  |  | pIC50 [1]: > 7.30
CNC(=O)c1nc(-c2cccc(CSCc3ccccc3)c2)cnc1N [Example 312, 3-amino-N-methyl-6-(3-{[(phenylmethyl)thio]methyl}phenyl)pyrazine-2-carboxamide] | 6.00 to 7.30 |  | 
Nc1ncc(-c2cccc(CNS(=O)(=O)c3ccc(C(F)(F)F)cc3)c2)nc1C(=O)N[C@H]1CCCNC1 [Example 918, 3-amino-N-[(3S)-piperidin-3-yl]-6-{3-[({[4-(trifluoromethyl)phenyl]sulfonyl}amino)methyl]phenyl}pyrazine-2-carboxamide] |  |  | pIC50 [1]: 6.00 to 7.30
Nc1ncc(-c2cccc(CN[C@H]3CCc4ccccc43)c2)nc1C(=O)NCCCO [Example 561, 3-amino-6-(3-{[(1S)-2,3-dihydro-1H-inden-1-ylamino]methyl}phenyl)-N-(3-hydroxypropyl)pyrazine-2-carboxamide] |  | 6.00 to 7.30 | 
Nc1ncc(-c2cccc(C(=O)NCc3ccc(Br)cc3F)c2)nc1C(=O)N[C@H]1CCCNC1 [Example 871, 3-amino-6-[3-({[(4-bromo-2-fluorophenyl)methyl]amino}carbonyl)phenyl]-N-[(3S)-piperidin-3-yl]pyrazine-2-carboxamide] |  |  | pIC50 [1]: > 7.30
CNC(=O)c1nc(-c2ccc(C(=O)NCCc3ccccc3)cc2)cnc1N [Example 151, 3-amino-N-methyl-6-(4-{[(2-phenylethyl)amino]carbonyl}phenyl)pyrazine-2-carboxamide] | 6.00 to 7.30 |  | 
CNC(=O)c1nc(-c2cccc(NCCc3ccccc3)c2)cnc1N [Example 410, 3-amino-N-methyl-6-{3-[(2-phenylethyl)amino]phenyl}pyrazine-2-carboxamide] | 6.00 to 7.30 |  | 
COc1ccc(NC(=O)NCc2cccc(-c3cnc(N)c(C(=O)N[C@H]4CCCNC4)n3)c2)cc1 [Example 957, 3-amino-6-(3-{[({[4-(methyloxy)phenyl]amino}carbonyl)amino]methyl}phenyl)-N-[(3S)-piperidin-3-yl]pyrazine-2-carboxamide] |  |  | pIC50 [1]: > 7.30
Cc1cc(C)cc(CNC(=O)c2cccc(-c3cnc(N)c(C(=O)N[C@H]4CCCNC4)n3)c2)c1 [Example 1037, 3-amino-6-[3-({[(3,5-dimethylphenyl)methyl]amino}carbonyl)phenyl]-N-[(3S)-piperidin-3-yl]pyrazine-2-carboxamide] |  |  | pIC50 [1]: > 7.30
CNC(=O)c1nc(-c2cccc(C(=O)NCc3cc(C)ccc3C)c2)cnc1N [Example 261, 3-amino-6-[3-({[(2,5-dimethylphenyl)methyl]amino}carbonyl)phenyl]-N-methylpyrazine-2-carboxamide] | 6.00 to 7.30 |  | 
CNC(=O)c1nc(-c2cccc(NC(=O)Cc3ccc4c(c3)OCO4)c2)cnc1N [Example 369, 3-amino-6-{3-[(1,3-benzodioxol-5-ylacetyl)amino]phenyl}-N-methylpyrazine-2-carboxamide] | 6.00 to 7.30 |  | 
CNC(=O)c1nc(-c2cccc([C@H](C)N[C@H]3CCc4ccccc43)c2)cnc1N [Example 750, 3-amino-6-(3-{(1S)-1-[(1S)-2,3-dihydro-1H-inden-1-ylamino]ethyl}phenyl)-N-methylpyrazine-2-carboxamide] |  | 6.00 to 7.30 | 
Nc1ncc(-c2cccc(C(=O)N[C@@H]3c4ccccc4C[C@@H]3O)c2)nc1-c1nnc([C@H]2CCCNC2)[nH]1 [Example 775, 3-(5-amino-6-{5-[(3S)-piperidin-3-yl]-4H-1,2,4-triazol-3-yl}pyrazin-2-yl)-N-[(1R,2S)-2-hydroxy-2,3-dihydro-1H-inden-1-yl]benzamide] |  | > 7.30 | 
Nc1ncc(-c2cccc(C(=O)NCc3ccccc3)c2)nc1C(=O)N[C@@H](CCC(=O)O)C(=O)O [Example 594, N-{[3-amino-6-(3-{[(phenylmethyl)amino]carbonyl}phenyl)pyrazin-2-yl]carbonyl}glutamic acid] |  | 5.00 to 6.00 | 
CNC(=O)c1nc(-c2ccc(C(=O)NCc3ccc(C)cc3)cc2)cnc1N [Example 153, 3-amino-N-methyl-6-[4-({[(4-methylphenyl)methyl]amino}carbonyl)phenyl]pyrazine-2-carboxamide] | 6.00 to 7.30 |  | 
Nc1ncc(-c2cccc(CO)c2)nc1-c1nc(-c2cccnc2)n[nH]1 [Example 580, {3-[5-amino-6-(3-pyridin-3-yl-1H-1,2,4-triazol-5-yl)pyrazin-2-yl]phenyl}methanol] |  | 6.00 to 7.30 | 
Nc1ncc(-c2cccc(CNC(=O)c3ccc(F)cc3)c2)nc1C(=O)N[C@H]1CCCNC1 [Example 882, 3-amino-6-[3-({[(4-fluorophenyl)carbonyl]amino}methyl)phenyl]-N-[(3S)-piperidin-3-yl]pyrazine-2-carboxamide] |  |  | pIC50 [1]: > 7.30

The next lines start with results.

pIC50 | pIC50 (Table 11, Chk1 only) | SMILES | also measured
 | 6.00 to 7.30 | CC(C)(C)c1nnc(-c2nc(-c3cccc(CN[C@H]4CCc5ccccc54)c3)cnc2N)[nH]1 [Example 582, 5-(3-{[(1S)-2,3-dihydro-1H-inden-1-ylamino]methyl}phenyl)-3-[5-(1,1-dimethylethyl)-4H-1,2,4-triazol-3-yl]pyrazin-2-amine] | 
6.00 to 7.30 |  | CNC(=O)c1nc(-c2cccc(NC(=O)c3cccc(Oc4ccccc4)c3)c2)cnc1N [Example 156, 3-amino-N-methyl-6-[3-({[3-(phenyloxy)phenyl]carbonyl}amino)phenyl]pyrazine-2-carboxamide] | 
 | > 7.30 | Nc1ncc(-c2cccc(CN[C@H]3CCc4ccccc43)c2)nc1C(=O)NCCc1c[nH]cn1 [Example 558, 3-amino-6-(3-{[(1S)-2,3-dihydro-1H-inden-1-ylamino]methyl}phenyl)-N-[2-(1H-imidazol-4-yl)ethyl]pyrazine-2-carboxamide] | 
5.00 to 6.00 |  | CNC(=O)c1nc(-c2cccc(C(=O)N[C@@H]3CCN(C(=O)OC(C)(C)C)C3)c2)cnc1N [Example 357, 1,1-dimethylethyl (3R)-3-{[(3-{5-amino-6-[(methylamino)carbonyl]pyrazin-2-yl}phenyl)carbonyl]amino}pyrrolidine-1-carboxylate] | 
 | 5.00 to 6.00 | Nc1ncc(-c2cccc(C(=O)NCc3ccccc3)c2)nc1C(=O)N[C@H]1CCN(C2CCNCC2)C1 [Example 687, 3-amino-6-(3-{[(phenylmethyl)amino]carbonyl}phenyl)-N-[(3S)-1-piperidin-4-ylpyrrolidin-3-yl]pyrazine-2-carboxamide] | 
 | 6.00 to 7.30 | C/C(=N\NCCO)c1nc(-c2cccc(C(=O)NCc3ccccc3)c2)cnc1N [Example 605, 3-{5-amino-6-[(1E)-N-(2-hydroxyethyl)ethanehydrazonoyl]pyrazin-2-yl}-N-(phenylmethyl)benzamide] | 
 | 5.00 to 6.00 | Cc1nc(-c2nc(-c3cccc(C(=O)NCc4ccccc4)c3)cnc2N)nn1C [Example 671, 3-[5-amino-6-(1,5-dimethyl-1H-1,2,4-triazol-3-yl)pyrazin-2-yl]-N-(phenylmethyl)benzamide] | 
6.00 to 7.30 |  | CNC(=O)c1nc(-c2cccc(C(=O)NCC3CCCN3)c2)cnc1N (centres unmarked) [Example 367, 3-amino-N-methyl-6-(3-{[(pyrrolidin-2-ylmethyl)amino]carbonyl}phenyl)pyrazine-2-carboxamide] | 
6.00 to 7.30 |  | CNC(=O)c1nc(-c2cccc(CNCc3ccc4c(c3)NCCO4)c2)cnc1N [Example 386, 3-amino-6-(3-{[(3,4-dihydro-2H-1,4-benzoxazin-6-ylmethyl)amino]methyl}phenyl)-N-methylpyrazine-2-carboxamide] | 
 | ≤ 5.00 | COC(=O)[C@@H]1CCCN1C(=O)c1nc(-c2cccc(C(=O)NCc3ccccc3)c2)cnc1N [Example 590, methyl 1-{[3-amino-6-(3-{[(phenylmethyl)amino]carbonyl}phenyl)pyrazin-2-yl]carbonyl}-L-prolinate] | 
 | 5.00 to 6.00 | N=C(NN1CCOCC1)c1nc(-c2cccc(C(=O)NCc3ccccc3)c2)cnc1N [Example 620, 3-{5-amino-6-[imino(morpholin-4-ylamino)methyl]pyrazin-2-yl}-N-(phenylmethyl)benzamide] | 
